This experiment deals with Ryanodine receptor 2 (Mus musculus) (UniProt E9Q401). Kind of experiment: Displacement of [3H]ryanodine from ryanodine receptor(ryr) of Mouse brain.
Sequence of Ryanodine receptor 2 (Mus musculus) (E9Q401 whole entry, looked up): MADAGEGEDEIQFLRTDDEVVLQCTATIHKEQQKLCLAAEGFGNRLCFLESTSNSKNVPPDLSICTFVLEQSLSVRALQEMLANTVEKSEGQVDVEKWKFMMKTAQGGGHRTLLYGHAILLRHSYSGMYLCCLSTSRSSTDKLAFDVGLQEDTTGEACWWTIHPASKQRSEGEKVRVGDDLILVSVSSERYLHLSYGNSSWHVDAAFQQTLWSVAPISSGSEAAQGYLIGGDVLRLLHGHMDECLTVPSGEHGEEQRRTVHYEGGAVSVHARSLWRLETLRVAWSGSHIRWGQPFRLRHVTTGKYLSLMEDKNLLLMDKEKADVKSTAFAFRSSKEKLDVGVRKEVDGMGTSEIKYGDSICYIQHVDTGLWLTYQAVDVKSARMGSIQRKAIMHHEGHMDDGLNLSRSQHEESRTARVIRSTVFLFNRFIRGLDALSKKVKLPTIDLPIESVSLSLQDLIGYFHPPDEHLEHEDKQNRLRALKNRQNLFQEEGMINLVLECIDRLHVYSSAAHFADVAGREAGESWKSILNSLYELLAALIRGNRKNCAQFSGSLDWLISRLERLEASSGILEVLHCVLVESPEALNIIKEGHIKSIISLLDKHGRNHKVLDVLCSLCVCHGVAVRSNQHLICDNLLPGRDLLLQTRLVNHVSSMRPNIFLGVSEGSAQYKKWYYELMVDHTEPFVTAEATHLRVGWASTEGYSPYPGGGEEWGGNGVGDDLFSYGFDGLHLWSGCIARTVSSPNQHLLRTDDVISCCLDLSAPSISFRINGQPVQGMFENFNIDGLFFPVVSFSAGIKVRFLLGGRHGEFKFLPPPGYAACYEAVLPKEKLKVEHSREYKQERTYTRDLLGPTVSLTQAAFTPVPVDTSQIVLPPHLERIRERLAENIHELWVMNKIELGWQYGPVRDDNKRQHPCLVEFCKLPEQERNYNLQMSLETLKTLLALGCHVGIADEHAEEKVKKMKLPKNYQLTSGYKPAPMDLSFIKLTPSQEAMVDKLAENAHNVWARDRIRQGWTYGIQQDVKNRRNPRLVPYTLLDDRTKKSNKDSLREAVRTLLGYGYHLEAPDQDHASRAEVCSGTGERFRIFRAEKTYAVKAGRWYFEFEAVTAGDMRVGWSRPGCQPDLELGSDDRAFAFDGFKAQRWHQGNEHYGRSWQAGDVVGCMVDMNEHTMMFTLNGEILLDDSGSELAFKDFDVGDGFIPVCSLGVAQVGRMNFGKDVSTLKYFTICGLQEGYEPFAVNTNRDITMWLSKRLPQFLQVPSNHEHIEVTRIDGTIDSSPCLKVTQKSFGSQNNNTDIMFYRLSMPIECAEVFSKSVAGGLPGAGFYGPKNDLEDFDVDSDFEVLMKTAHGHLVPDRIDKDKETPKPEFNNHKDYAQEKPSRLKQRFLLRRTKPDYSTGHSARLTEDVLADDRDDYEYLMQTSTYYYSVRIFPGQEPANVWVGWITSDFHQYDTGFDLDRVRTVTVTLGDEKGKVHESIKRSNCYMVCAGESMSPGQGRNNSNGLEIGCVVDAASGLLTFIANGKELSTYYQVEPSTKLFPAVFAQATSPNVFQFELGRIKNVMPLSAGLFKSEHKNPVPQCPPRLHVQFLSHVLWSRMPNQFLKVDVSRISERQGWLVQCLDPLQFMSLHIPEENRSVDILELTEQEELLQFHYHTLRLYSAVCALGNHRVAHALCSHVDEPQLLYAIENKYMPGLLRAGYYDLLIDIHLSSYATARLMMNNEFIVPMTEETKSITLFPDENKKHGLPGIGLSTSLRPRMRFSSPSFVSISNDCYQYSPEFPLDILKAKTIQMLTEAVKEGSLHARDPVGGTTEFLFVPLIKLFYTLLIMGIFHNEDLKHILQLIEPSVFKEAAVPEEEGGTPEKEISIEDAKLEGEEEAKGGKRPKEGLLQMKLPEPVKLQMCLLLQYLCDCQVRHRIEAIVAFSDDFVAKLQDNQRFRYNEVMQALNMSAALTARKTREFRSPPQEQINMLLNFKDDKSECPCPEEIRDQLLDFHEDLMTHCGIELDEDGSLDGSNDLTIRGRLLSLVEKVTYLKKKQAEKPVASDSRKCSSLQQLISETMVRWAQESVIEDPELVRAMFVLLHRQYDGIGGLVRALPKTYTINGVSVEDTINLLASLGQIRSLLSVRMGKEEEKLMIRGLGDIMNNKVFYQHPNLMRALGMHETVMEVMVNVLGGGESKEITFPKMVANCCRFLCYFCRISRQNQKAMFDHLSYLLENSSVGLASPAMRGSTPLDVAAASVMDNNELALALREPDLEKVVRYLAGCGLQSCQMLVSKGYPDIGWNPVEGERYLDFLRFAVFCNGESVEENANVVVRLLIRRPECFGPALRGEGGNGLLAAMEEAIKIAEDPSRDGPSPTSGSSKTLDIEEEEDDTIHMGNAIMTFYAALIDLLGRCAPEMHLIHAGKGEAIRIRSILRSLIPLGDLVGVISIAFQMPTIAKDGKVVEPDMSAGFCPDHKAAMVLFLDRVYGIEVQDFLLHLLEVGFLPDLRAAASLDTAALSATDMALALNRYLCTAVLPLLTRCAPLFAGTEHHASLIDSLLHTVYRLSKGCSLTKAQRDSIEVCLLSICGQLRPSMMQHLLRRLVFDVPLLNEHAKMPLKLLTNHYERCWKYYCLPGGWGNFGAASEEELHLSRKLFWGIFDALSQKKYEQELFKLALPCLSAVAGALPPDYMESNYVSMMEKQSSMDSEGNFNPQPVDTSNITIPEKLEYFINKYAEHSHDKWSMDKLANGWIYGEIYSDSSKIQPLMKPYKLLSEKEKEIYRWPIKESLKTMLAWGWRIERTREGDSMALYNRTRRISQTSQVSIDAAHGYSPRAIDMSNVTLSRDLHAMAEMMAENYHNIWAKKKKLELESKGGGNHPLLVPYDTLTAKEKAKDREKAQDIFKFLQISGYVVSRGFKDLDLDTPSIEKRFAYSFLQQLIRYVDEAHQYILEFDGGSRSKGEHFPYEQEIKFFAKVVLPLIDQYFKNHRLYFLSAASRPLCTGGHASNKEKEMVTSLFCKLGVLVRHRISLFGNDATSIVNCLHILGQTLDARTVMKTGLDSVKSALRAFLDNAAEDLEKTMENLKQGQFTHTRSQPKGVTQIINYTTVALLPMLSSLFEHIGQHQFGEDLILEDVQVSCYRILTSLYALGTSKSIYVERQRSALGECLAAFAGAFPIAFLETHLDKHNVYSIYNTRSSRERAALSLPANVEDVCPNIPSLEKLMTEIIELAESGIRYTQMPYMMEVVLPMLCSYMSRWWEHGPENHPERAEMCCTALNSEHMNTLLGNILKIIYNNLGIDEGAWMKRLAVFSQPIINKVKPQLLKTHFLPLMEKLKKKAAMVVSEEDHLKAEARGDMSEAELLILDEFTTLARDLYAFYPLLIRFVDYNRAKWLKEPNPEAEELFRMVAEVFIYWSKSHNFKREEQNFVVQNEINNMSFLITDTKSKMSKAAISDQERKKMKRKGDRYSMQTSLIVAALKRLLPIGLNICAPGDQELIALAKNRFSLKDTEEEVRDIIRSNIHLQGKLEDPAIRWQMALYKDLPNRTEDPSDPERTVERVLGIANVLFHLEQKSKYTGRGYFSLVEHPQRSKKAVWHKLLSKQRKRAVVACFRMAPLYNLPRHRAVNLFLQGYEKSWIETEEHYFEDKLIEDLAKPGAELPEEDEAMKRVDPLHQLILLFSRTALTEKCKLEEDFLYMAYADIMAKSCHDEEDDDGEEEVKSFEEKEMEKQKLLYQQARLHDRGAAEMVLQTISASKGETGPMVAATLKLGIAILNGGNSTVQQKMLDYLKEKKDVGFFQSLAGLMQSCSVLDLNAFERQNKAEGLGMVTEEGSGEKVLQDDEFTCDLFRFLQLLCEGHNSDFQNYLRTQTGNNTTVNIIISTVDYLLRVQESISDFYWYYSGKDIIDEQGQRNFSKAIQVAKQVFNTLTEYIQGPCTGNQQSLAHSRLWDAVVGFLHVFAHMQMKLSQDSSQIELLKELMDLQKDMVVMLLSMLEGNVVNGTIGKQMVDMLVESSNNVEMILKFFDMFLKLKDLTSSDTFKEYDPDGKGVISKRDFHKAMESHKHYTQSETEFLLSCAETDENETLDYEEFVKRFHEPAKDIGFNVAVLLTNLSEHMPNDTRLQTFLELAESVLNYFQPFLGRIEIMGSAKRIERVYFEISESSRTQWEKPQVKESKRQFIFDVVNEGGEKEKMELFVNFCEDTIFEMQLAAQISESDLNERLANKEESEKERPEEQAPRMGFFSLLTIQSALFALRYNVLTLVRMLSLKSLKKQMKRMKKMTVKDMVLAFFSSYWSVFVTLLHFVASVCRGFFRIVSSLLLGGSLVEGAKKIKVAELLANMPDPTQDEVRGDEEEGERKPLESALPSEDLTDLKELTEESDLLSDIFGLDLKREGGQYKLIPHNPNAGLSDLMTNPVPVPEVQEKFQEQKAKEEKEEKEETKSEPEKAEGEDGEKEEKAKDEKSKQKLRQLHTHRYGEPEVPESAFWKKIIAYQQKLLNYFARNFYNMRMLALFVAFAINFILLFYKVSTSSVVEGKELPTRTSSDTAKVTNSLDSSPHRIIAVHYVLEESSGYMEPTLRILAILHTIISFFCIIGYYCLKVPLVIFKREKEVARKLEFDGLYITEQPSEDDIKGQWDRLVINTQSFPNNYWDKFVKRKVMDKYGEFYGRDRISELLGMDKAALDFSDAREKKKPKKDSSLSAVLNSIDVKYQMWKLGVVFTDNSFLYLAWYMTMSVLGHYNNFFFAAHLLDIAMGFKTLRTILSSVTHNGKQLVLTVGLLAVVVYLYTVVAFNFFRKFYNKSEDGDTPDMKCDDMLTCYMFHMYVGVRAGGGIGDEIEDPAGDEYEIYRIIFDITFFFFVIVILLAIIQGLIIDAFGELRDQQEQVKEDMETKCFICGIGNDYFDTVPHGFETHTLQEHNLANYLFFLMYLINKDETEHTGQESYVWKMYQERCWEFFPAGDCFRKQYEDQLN

`CC1CCC2(O)C3(C)CC4(O)OC2(C1N)C1(O)C3(O)C(OC(=O)c2ccc[nH]2)C(O)(C(C)C)C41C` (stereo not given) showed a Relative activity of 65.

`C=C1CCC2(O)C3(C)CC4(O)OC2(C1OC(=O)c1ccccc1)C1(O)C3(O)C(OC(=O)c2ccc[nH]2)C(O)(C(C)C)C41C` (stereo not given): the Relative activity is 17. In turn, `CC(C)C1(O)C(OC(=O)c2ccc[nH]2)C2(O)C3(C)CC4(O)OC5(CCCCC35O)C2(O)C41C` (stereo not given) returned a Relative activity of 18. Compound `CC(C)C1(O)C(OC(=O)c2ccc[nH]2)C2(O)C3(C)CC4(O)OC5(CC(O)CCC35O)C2(O)C41C` (stereo not given) registered a Relative activity of 0.4. Compound `CO/N=C1\C(C)CCC2(O)C3(C)CC4(O)OC12C1(O)C3(O)C(OC(=O)c2ccc[nH]2)C(O)(C(C)C)C41C` (stereo not given) displayed a Relative activity of 13.

The values above are taken from ChEMBL document CHEMBL1129336, “Ryanodine action at calcium release channels. 2. relation to substituents of the cyclohexane ring” (J Med Chem, 1996).
